Assay results from patent US8247211B2, “Glycopeptide antibiotics” (American Cyanamid Company, priority 2001, dated 2012).
In brackets after ≈: the same amount, converted by molar mass.

Columns and labels:
Assay in all cases: In vitro antibacterial evaluation: minimum inhibitory concentration (MIC), broth dilution method
Format in all cases: cell-based
[1] = system: Staphylococcus sp.; settings: for MIC Coagulase Negative Staphylococcus (GC 4537): strain GC 4537; for MIC Coagulase Negative Staphylococcus (GC 4538): strain GC 4538; for MIC Staphylococcus aureus-SMITH (GC 4536): strain SMITH GC 4536
Protocol: (§1) The minimum inhibitory concentration (MIC), the lowest concentration of the antibiotic which inhibits growth of the test organism, is determined by the broth dilution method using Muller-Hinton II […] (Baltimore Biological Laboratories) following the recommendations of the National Committee for Clinical Laboratory Standards [Methods for dilution antimicrobial susceptibility tests for bacteria that grow aerobically, approved standard M7-A2, National Committee for Clinical Laboratory Standards, Villanova, Pa].
(§2) An inoculum level of 5×10^5 CFU/mL, and a range of antibiotic concentrations (64-0.06 μg/mL) is used. […] The test organisms include a spectrum of Gram-positive bacteria comprised of Staphylococcus sp., Streptococcus sp. and Enterococcus sp. These organisms include recent clinical isolates that are resistant to methicillin, penicillin and/or vancomycin.

[2] = system: Escherichia coli; settings: for MIC Escherichia coli (GC 4559): strain GC 4559
Protocol: as §1, §2

[3] = system: Enterococcus sp.; settings: for MIC Enterococcus faecalis (ATCC 29212): strain ATCC 29212; for MIC Enterococcus faecalis (GC 2242): strain GC 2242; for MIC Enterococcus faecalis (GC 4552): strain GC 4552
Protocol: as §1, §2

[4] = broth dilution, 18 hours at 35° C.
[5] = strain GC 4547, broth dilution, 18 hours at 35° C.

For `CCCCCCC(=O)OCC1OC(Oc2ccc(CC3NC(=O)C(C(C)c4ccccc4)NC(=O)CNC(=O)C(CO)NC(=O)C(C(O)C4CNC(=N)N4C4OC(CO)C(O)C(O)C4O)NC(=O)C(C(O)C4CNC(=N)N4)NC3=O)cc2)C(O)C(O)C1OC1OC(CO)C(O)C(O)C1O` (stereo not drawn) [Example 97a, Cyclo[glycyl-β-methylphenylalanyl-O-(6-O-heptanoyl-4-O-hexopyranosylhexopyranosyl)-tyrosyl-3-(2-iminoimidazolidin-4-yl)seryl-3-(3-hexopyranosyl-2-iminoimidazolidin-4-yl)-serylseryl]], the “MIC Staphylococcus aureus (ATCC 29213)” value [1, 4] was 1 µg/mL (≈ 0.711 µM), the “MIC Staphylococcus aureus (GC 1131)” value [1, 4] was 2 µg/mL (≈ 1.42 µM) and the “MIC Staphylococcus aureus (GC 4535)” value [1, 4] was 2 µg/mL (≈ 1.42 µM). The “MIC Staphylococcus aureus SMITH (GC 4536)” value [1, 4] was 0.5 µg/mL (≈ 0.355 µM), the “MIC Coagulase Negative Staphylococcus (GC 4537)” value [1] was 4 µg/mL (≈ 2.84 µM) and the “MIC Coagulase Negative Staphylococcus (GC 4537)” value [1, 4] was 4 µg/mL (≈ 2.84 µM). For the same compound, the “MIC Coagulase Negative Staphylococcus (GC 4538)” value [1] was 2 µg/mL (≈ 1.42 µM), the “MIC Coagulase Negative Staphylococcus (GC 4538)” value [1, 4] was 2 µg/mL (≈ 1.42 µM) and the “MIC Coagulase Negative Staphylococcus (GC 4547)” value ([1]; strain GC 4547) was 2 µg/mL (≈ 1.42 µM). The “MIC Coagulase Negative Staphylococcus (GC 4547)” value [1, 5] was 2 µg/mL (≈ 1.42 µM), the “MIC Staphylococcus aureus-SMITH (GC 4536)” value [1, 4] was 0.5 µg/mL (≈ 0.355 µM) and the “MIC Escherichia coli (GC 4559)” value [2] was >64 µg/mL. For the same compound, the “MIC Escherichia coli (GC 4560)” value ([2]; strain GC 4560) was 1 µg/mL (≈ 0.711 µM), the “MIC Enterococcus faecalis (ATCC 29212)” value [3] was 8 µg/mL (≈ 5.68 µM) and the “MIC Enterococcus faecalis (GC 2242)” value [3] was 4 µg/mL (≈ 2.84 µM). For the same compound, the “MIC Enterococcus faecalis (GC 4552)” value [3] was 16 µg/mL (≈ 11.4 µM).

With `CC(c1ccccc1)C1NC(=O)CNC(=O)C(CO)NC(=O)C(C(O)C2CNC(=N)N2C2OC(CO)C(O)C(O)C2O)NC(=O)C(C(O)C2CNC(=N)N2)NC(=O)C(Cc2ccc(OC3OC(CO)C(OC4OC(COC(=O)Cc5ccccc5)C(O)C(O)C4O)C(O)C3O)cc2)NC1=O` (stereo not drawn) [Example 98c, Cyclo[glycyl-β-methylphenylalanyl-O-[4-O-[6-O-(phenylacetyl)hexopyranosyl]hexopyranosyl]-tyrosyl-3-(2-iminoimidazolidin-4-yl)seryl-3-(3-hexopyranosyl-2-iminoimidazolidin-4-yl)-serylseryl]] the “MIC Staphylococcus aureus (ATCC 29213)” value [1, 4] was 2 µg/mL (≈ 1.42 µM), the “MIC Staphylococcus aureus (GC 1131)” value [1, 4] was 2 µg/mL (≈ 1.42 µM) and the “MIC Staphylococcus aureus (GC 4535)” value [1, 4] was 4 µg/mL (≈ 2.83 µM). For the same compound, the “MIC Staphylococcus aureus SMITH (GC 4536)” value [1, 4] was 2 µg/mL (≈ 1.42 µM), the “MIC Coagulase Negative Staphylococcus (GC 4537)” value [1] was 2 µg/mL (≈ 1.42 µM) and the “MIC Coagulase Negative Staphylococcus (GC 4537)” value [1, 4] was 2 µg/mL (≈ 1.42 µM). For the same compound, the “MIC Coagulase Negative Staphylococcus (GC 4538)” value [1] was 1 µg/mL (≈ 0.708 µM), the “MIC Coagulase Negative Staphylococcus (GC 4538)” value [1, 4] was 1 µg/mL (≈ 0.708 µM) and the “MIC Coagulase Negative Staphylococcus (GC 4547)” value ([1]; strain GC 4547) was 1 µg/mL (≈ 0.708 µM). The “MIC Coagulase Negative Staphylococcus (GC 4547)” value [1, 5] was 1 µg/mL (≈ 0.708 µM), the “MIC Staphylococcus aureus-SMITH (GC 4536)” value [1, 4] was 2 µg/mL (≈ 1.42 µM) and the “MIC Escherichia coli (GC 4559)” value [2] was 64 µg/mL (≈ 45.3 µM). The “MIC Escherichia coli (GC 4560)” value ([2]; strain GC 4560) was 0.5 µg/mL (≈ 0.354 µM), the “MIC Enterococcus faecalis (ATCC 29212)” value [3] was 16 µg/mL (≈ 11.3 µM) and the “MIC Enterococcus faecalis (GC 2242)” value [3] was 8 µg/mL (≈ 5.66 µM). The “MIC Enterococcus faecalis (GC 4552)” value [3] was 16 µg/mL (≈ 11.3 µM).

With `CC(C)C(=O)OCC1OC(OC2C(CO)OC(Oc3ccc(CC4NC(=O)C(Cc5ccccc5)NC(=O)CNC(=O)C(CO)NC(=O)C(C(O)C5CNC(=N)N5C5OC(CO)C(O)C(O)C5O)NC(=O)C(C(O)C5CNC(=N)N5)NC4=O)cc3)C(O)C2O)C(O)C(O)C1O` (stereo not drawn) [Example 283a] the “MIC Coagulase Negative Staphylococcus (GC 4547)” value ([1]; Coagulase Negative Staphylococcus (GC 4547), 18 hours at 35° C.) was 64 µg/mL (≈ 47.4 µM), the “MIC Coagulase Negative Staphylococcus (GC 4547)” value ([1]; Coagulase Negative Staphylococcus (GC 4547), broth dilution, 18 hours at 35° C.) was 64 µg/mL (≈ 47.4 µM) and the “MIC Coagulase Negative Staphylococcus (GC 4548)” value ([1]; 18 hours at 35° C.) was 64 µg/mL (≈ 47.4 µM). For the same compound, the “MIC Coagulase Negative Staphylococcus (GC 4548)” value [1, 4] was 64 µg/mL (≈ 47.4 µM), the “MIC Coagulase Negative Staphylococcus (GC 4549)” value ([1]; 18 hours at 35° C.) was 32 µg/mL (≈ 23.7 µM) and the “MIC Coagulase Negative Staphylococcus (GC 4549)” value [1, 4] was 32 µg/mL (≈ 23.7 µM). The “MIC Coagulase Negative Staphylococcus (GC 4551)” value ([1]; 18 hours at 35° C.) was 64 µg/mL (≈ 47.4 µM), the “MIC Coagulase Negative Staphylococcus (GC 4551)” value [1, 4] was 64 µg/mL (≈ 47.4 µM) and the “MIC Staphylococcus aureus (ATCC 29213)” value ([1]; Staphylococcus aureus (ATCC 29213), 18 hours at 35° C.) was 64 µg/mL (≈ 47.4 µM). The “MIC Staphylococcus aureus (ATCC 29213)” value ([1]; Staphylococcus aureus (ATCC 29213), broth dilution, 18 hours at 35° C.) was 64 µg/mL (≈ 47.4 µM), the “MIC Staphylococcus aureus (GC 1131)” value ([1]; Staphylococcus aureus (GC 1131), 18 hours at 35° C.) was 64 µg/mL (≈ 47.4 µM) and the “MIC Staphylococcus aureus (GC 1131)” value ([1]; Staphylococcus aureus (GC 1131), broth dilution, 18 hours at 35° C.) was 64 µg/mL (≈ 47.4 µM). For the same compound, the “MIC Staphylococcus aureus (GC 3051)” value ([1]; 18 hours at 35° C.) was 64 µg/mL (≈ 47.4 µM), the “MIC Staphylococcus aureus (GC 3051)” value [1, 4] was 64 µg/mL (≈ 47.4 µM) and the “MIC Staphylococcus aureus (GC 4541)” value ([1]; 18 hours at 35° C.) was 64 µg/mL (≈ 47.4 µM). For the same compound, the “MIC Staphylococcus aureus (GC 4541)” value [1, 4] was 64 µg/mL (≈ 47.4 µM), the “MIC Staphylococcus aureus (GC 4542)” value ([1]; 18 hours at 35° C.) was 64 µg/mL (≈ 47.4 µM) and the “MIC Staphylococcus aureus (GC 4542)” value [1, 4] was 64 µg/mL (≈ 47.4 µM). The “MIC Staphylococcus aureus (GC 4544)” value ([1]; 18 hours at 35° C.) was 64 µg/mL (≈ 47.4 µM), the “MIC Staphylococcus aureus (GC 4544)” value [1, 4] was 64 µg/mL (≈ 47.4 µM) and the “MIC Staphylococcus aureus (GC 4545)” value ([1]; 18 hours at 35° C.) was 64 µg/mL (≈ 47.4 µM). For the same compound, the “MIC Staphylococcus aureus (GC 4545)” value [1, 4] was 64 µg/mL (≈ 47.4 µM), the “MIC Staphylococcus aureus-SMITH (GC 4543)” value ([1]; 18 hours at 35° C.) was 64 µg/mL (≈ 47.4 µM) and the “MIC Staphylococcus aureus-SMITH (GC 4543)” value [1, 4] was 64 µg/mL (≈ 47.4 µM). The “MIC Staphylococcus haemolyticus (GC 4546)” value ([1]; 18 hours at 35° C.) was 64 µg/mL (≈ 47.4 µM), the “MIC Staphylococcus haemolyticus (GC 4546)” value [1, 4] was 64 µg/mL (≈ 47.4 µM) and the “MIC Escherichia coli (GC 4560)” value ([2]; Escherichia coli (GC 4560)) was 32 µg/mL (≈ 23.7 µM). The “MIC Enterococcus faecium (GC 4557)” value ([3]; Enterococcus faecium (GC 4557)) was 64 µg/mL (≈ 47.4 µM).
